test system: MV4-11; assay: Cellular MV4-11 viability assay (CellTiter-Glo, 72 hours); format: cell-based; settings: Homo sapiens
Description: (§1) All cell lines were routinely tested for mycoplasma.
(§2) The effect of the CDK7 inhibitor to inhibit the growth of target cancer cells was evaluated through the 72 hours time period of viability assay. Briefly, the candidate cell line ware plated in 96 well plate at the following density of cells respectively. […] DMSO solvent without compound served as a control and final DMSO concentration less than 0.1%. After 72 hours of incubation at 37° C., 5% CO2 incubator, cells were analyzed for the viability using the CellTiter-Glo Luminescent Cell Viability Assay (Promega, Cat #G7570). All viability assays were performed in duplicate and Luminescence was read using an Envision (Perkin Elmer, USA). Data was analyzed using XLfit software.

IC50	SMILES
1 to 10 µM	CC(C)c1cnn2c(NCc3ccccc3-n3ccc(C(C)(C)O)n3)nc(OCC3CCNCC3)nc12 [Compound 227]
< 1 µM	CC(C)c1cnn2c(NCc3ccccc3-c3ccc4ccccc4n3)nc(NCC3CCNCC3O)nc12 (stereo not drawn) [Compound 222]
< 1 µM	CC(C)c1cnn2c(NCc3ccccc3-c3ccc4ccccc4n3)cc(NCC3(O)CCNCC3)nc12 [Compound 208]

molecular target: T1, CDK5/p25 (Homo sapiens, UniProt Q00535); assay: Enzymatic assay for CDK5 (FRET based LANCE Ultra kinase assay); format: biochemical; settings: read-out: CDK5 enzymatic activity (IC50 range)
T1 construct: purchased Invitrogen PR8543B
T1 sequence (Q00535 whole entry): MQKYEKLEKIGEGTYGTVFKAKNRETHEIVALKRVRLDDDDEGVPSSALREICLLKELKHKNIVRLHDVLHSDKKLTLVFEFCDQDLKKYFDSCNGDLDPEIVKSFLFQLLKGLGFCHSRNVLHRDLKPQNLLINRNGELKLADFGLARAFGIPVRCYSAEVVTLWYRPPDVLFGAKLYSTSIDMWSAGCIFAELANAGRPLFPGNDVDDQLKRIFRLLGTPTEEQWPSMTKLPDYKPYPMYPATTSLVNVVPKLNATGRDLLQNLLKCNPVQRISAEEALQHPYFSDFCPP
T1 sequence (Q15078 99-307 partner limits assumed): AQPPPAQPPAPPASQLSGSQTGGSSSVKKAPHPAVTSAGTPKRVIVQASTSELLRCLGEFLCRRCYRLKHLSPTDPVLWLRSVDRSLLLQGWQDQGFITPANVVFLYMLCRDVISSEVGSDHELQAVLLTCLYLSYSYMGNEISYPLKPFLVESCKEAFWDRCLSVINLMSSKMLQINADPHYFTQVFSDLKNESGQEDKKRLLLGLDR
Description: (§3) Enzymatic Binding Assay Protocol for CDK1, CDK2, CDK5 and CDK7
(§4) Inhibition activity of the respective compound on CDK kinase under Km value of ATP was tested in FRET based The LANCE® Ultra kinase assay (Perkin Elmer), which uses a ULight™-labeled peptide substrate and an appropriate Europium-labeled anti-phospho-antibody. Test compounds were made with DMSO solutions, and then 4-fold serial dilutions for 8 doses were prepared using automated liquid handler (POD810, LABCYTE) and 80 nL/well of diluted compound solutions were added into the 384-well plates (Greiner, Cat #784075). And then 68 nM of ULight-MBP peptide (Perkin Elmer, Cat #TRF0109-M) and 5 ul/well of ATP (Sigma, Cat #A7699) were added to the plate. After 1 min centrifugation at 1000 rpm, Purified CDKs/Cyclin complex were added following concentrations respectively. 24 uM for CDK1/Cyclin B (Invitrogen, Cat #PR4768C), 22 uM for CDK2/Cyclin A (Invitrogen, Cat #PV6290), 10 uM for CDK5/p25 (Invitrogen, Cat #PR8543B) and […] for CDK7/Cyclin H/MNAT1 (Invitrogen, Cat #PR6749B) were added to the each corresponding plate for CDK1, CDK2, CDK5 and CDK7. Incubate at 23° C. for 60 min and then Eu-labeled anti-phospho-Myelin Basic Protein (PE, Cat #TRF0201-M) and EDTA (Invitrogen, Cat #15575038) mixture in Lance Detection Buffer (Perkin Elmer, Cat #CR97100) was added in each well. After additional incubation at 23° C. for 60 min, test articles were measured the fluorescence using Envision leader (Perkin Elmer, USA) [Laser as excitation light; […] as the first and the second emission filter]. Data was analyzed using XL Fit software.

IC50	SMILES
> 1 µM	CC(C)c1cnn2c(NCc3ccccc3-n3ccc(C(C)(C)O)n3)nc(OCC3CCNCC3)nc12 [Compound 227]
0.1 to 1 µM	CC(C)c1cnn2c(NCc3ccccc3-c3ccc4ccccc4n3)nc(NCC3CCNCC3O)nc12 (stereo not drawn) [Compound 222]
0.1 to 1 µM	CC(C)c1cnn2c(NCc3ccccc3-c3ccc4ccccc4n3)cc(NCC3(O)CCNCC3)nc12 [Compound 208]

molecular target: T2, CDK1/Cyclin B (Homo sapiens, UniProt P06493); assay: Enzymatic assay for CDK1 (FRET based LANCE Ultra kinase assay); format: biochemical; settings: read-out: CDK1 enzymatic activity (IC50 range)
T2 construct: purchased Invitrogen PR4768C
T2 sequence (P06493 whole entry): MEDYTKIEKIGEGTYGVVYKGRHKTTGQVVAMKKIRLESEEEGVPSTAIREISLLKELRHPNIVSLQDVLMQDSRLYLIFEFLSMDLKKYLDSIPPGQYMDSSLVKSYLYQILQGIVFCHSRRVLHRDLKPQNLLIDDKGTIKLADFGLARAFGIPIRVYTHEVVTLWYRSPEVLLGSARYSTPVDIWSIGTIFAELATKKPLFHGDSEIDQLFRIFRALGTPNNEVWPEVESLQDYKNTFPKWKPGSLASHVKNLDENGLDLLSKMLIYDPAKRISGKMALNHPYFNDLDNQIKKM
T2 sequence (P14635 whole entry partner): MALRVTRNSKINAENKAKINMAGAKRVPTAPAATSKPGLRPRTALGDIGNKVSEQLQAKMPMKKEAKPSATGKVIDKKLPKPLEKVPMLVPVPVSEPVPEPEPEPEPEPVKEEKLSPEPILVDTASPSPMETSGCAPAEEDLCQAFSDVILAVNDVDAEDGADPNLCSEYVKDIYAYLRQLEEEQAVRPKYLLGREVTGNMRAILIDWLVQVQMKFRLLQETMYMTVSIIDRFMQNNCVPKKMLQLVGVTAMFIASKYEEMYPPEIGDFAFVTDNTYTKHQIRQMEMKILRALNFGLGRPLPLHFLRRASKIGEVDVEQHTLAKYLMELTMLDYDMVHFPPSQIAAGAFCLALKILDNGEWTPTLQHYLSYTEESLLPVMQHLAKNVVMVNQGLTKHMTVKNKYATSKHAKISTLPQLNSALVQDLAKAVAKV
Description: as §3, §4

IC50	SMILES
> 1 µM	CC(C)c1cnn2c(NCc3ccccc3-n3ccc(C(C)(C)O)n3)nc(OCC3CCNCC3)nc12 [Compound 227]
> 1 µM	CC(C)c1cnn2c(NCc3ccccc3-c3ccc4ccccc4n3)nc(NCC3CCNCC3O)nc12 (stereo not drawn) [Compound 222]
0.1 to 1 µM	CC(C)c1cnn2c(NCc3ccccc3-c3ccc4ccccc4n3)cc(NCC3(O)CCNCC3)nc12 [Compound 208]

molecular target: T3, CDK7/Cyclin H/MNAT1 (Homo sapiens, UniProt P50613); assay: Enzymatic assay for CDK7 (FRET based LANCE Ultra kinase assay); format: biochemical; settings: CDK7 over CDK1
T3 construct: purchased Invitrogen PR6749B
T3 sequence (P50613 whole entry): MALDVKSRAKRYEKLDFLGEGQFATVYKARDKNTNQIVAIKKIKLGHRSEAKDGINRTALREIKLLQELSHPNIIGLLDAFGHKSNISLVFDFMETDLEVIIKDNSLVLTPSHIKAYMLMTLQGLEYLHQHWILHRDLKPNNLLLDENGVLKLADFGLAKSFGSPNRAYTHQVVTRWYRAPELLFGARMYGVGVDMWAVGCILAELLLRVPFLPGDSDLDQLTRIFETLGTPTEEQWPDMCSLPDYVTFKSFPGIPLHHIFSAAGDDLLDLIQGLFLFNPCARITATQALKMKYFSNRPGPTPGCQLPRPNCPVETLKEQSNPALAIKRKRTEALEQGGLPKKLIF
T3 sequence (P51946 whole entry partner): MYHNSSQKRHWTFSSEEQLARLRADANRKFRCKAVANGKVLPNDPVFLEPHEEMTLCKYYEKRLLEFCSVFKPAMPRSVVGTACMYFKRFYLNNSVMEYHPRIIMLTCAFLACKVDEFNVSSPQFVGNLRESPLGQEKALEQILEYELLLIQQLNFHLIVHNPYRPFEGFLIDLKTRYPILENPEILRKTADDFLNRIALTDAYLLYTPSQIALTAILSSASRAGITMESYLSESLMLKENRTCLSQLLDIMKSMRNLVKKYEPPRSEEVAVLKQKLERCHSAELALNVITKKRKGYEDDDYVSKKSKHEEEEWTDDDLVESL
T3 sequence (P51948 whole entry partner): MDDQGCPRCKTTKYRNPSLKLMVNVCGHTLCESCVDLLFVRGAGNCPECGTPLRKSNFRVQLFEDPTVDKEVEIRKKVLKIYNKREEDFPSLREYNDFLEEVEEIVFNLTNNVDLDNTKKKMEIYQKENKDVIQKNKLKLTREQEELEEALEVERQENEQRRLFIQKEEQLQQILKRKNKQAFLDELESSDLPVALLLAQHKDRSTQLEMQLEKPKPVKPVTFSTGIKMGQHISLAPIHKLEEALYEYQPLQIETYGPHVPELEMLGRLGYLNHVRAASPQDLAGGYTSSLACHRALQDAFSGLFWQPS
Description: as §3
Inhibition activity of the respective compound on CDK kinase under Km value of ATP was tested in FRET based The LANCE® Ultra kinase assay (Perkin Elmer), which uses a ULight™-labeled peptide substrate and an appropriate Europium-labeled anti-phospho-antibody. […] After 1 min centrifugation at 1000 rpm, Purified CDKs/Cyclin complex were added following concentrations respectively. […] Data was analyzed using XL Fit software.

CDK1/CDK7: Selectivity of CDK7 inhibition over CDK1 inhibition	SMILES
A (A=greater than 200 fold)	CC(C)c1cnn2c(NCc3ccccc3-n3ccc(C(C)(C)O)n3)nc(OCC3CCNCC3)nc12 [Compound 227]
A (A=greater than 200 fold)	CC(C)c1cnn2c(NCc3ccccc3-c3ccc4ccccc4n3)nc(NCC3CCNCC3O)nc12 (stereo not drawn) [Compound 222]

SMILES	CDK1/CDK7: Selectivity of CDK7 inhibition over CDK1 inhibition
CC(C)c1cnn2c(NCc3ccccc3-c3ccc4ccccc4n3)cc(NCC3(O)CCNCC3)nc12 [Compound 208]	B (B=less than 200 fold, but greater than 20 fold)

same assay, conditions: CDK7 over CDK2

CDK2/CDK7: Selectivity of CDK7 inhibition over CDK2 inhibition	SMILES
A (A=greater than 200 fold)	CC(C)c1cnn2c(NCc3ccccc3-n3ccc(C(C)(C)O)n3)nc(OCC3CCNCC3)nc12 [Compound 227]
A (A=greater than 200 fold)	CC(C)c1cnn2c(NCc3ccccc3-c3ccc4ccccc4n3)nc(NCC3CCNCC3O)nc12 (stereo not drawn) [Compound 222]
C (C=less than 20 fold)	CC(C)c1cnn2c(NCc3ccccc3-c3ccc4ccccc4n3)cc(NCC3(O)CCNCC3)nc12 [Compound 208]

same assay, conditions: CDK7 over CDK5

CDK5/CDK7: Selectivity of CDK7 inhibition over CDK5 inhibition	SMILES
A (A=greater than 200 fold)	CC(C)c1cnn2c(NCc3ccccc3-n3ccc(C(C)(C)O)n3)nc(OCC3CCNCC3)nc12 [Compound 227]
A (A=greater than 200 fold)	CC(C)c1cnn2c(NCc3ccccc3-c3ccc4ccccc4n3)nc(NCC3CCNCC3O)nc12 (stereo not drawn) [Compound 222]

SMILES	CDK5/CDK7: Selectivity of CDK7 inhibition over CDK5 inhibition
CC(C)c1cnn2c(NCc3ccccc3-c3ccc4ccccc4n3)cc(NCC3(O)CCNCC3)nc12 [Compound 208]	B (B=less than 200 fold, but greater than 20 fold)

same assay, conditions: read-out: CDK7 enzymatic activity (IC50 range)

IC50	SMILES
< 0.1 µM	CC(C)c1cnn2c(NCc3ccccc3-n3ccc(C(C)(C)O)n3)nc(OCC3CCNCC3)nc12 [Compound 227]
< 0.1 µM	CC(C)c1cnn2c(NCc3ccccc3-c3ccc4ccccc4n3)nc(NCC3CCNCC3O)nc12 (stereo not drawn) [Compound 222]
< 0.1 µM	CC(C)c1cnn2c(NCc3ccccc3-c3ccc4ccccc4n3)cc(NCC3(O)CCNCC3)nc12 [Compound 208]

test system: HCT116; assay: Cellular HCT116 viability assay (CellTiter-Glo, 72 hours); format: cell-based; settings: Homo sapiens, HCT-116
Description: as §1, §2

IC50	SMILES
< 1 µM	CC(C)c1cnn2c(NCc3ccccc3-n3ccc(C(C)(C)O)n3)nc(OCC3CCNCC3)nc12 [Compound 227]
< 1 µM	CC(C)c1cnn2c(NCc3ccccc3-c3ccc4ccccc4n3)nc(NCC3CCNCC3O)nc12 (stereo not drawn) [Compound 222]
< 1 µM	CC(C)c1cnn2c(NCc3ccccc3-c3ccc4ccccc4n3)cc(NCC3(O)CCNCC3)nc12 [Compound 208]

test system: H460; assay: Cellular H460 viability assay (CellTiter-Glo, 72 hours); format: cell-based; settings: Homo sapiens, NCI-H460
Description: as §1, §2

IC50	SMILES
< 1 µM	CC(C)c1cnn2c(NCc3ccccc3-n3ccc(C(C)(C)O)n3)nc(OCC3CCNCC3)nc12 [Compound 227]
< 1 µM	CC(C)c1cnn2c(NCc3ccccc3-c3ccc4ccccc4n3)nc(NCC3CCNCC3O)nc12 (stereo not drawn) [Compound 222]
< 1 µM	CC(C)c1cnn2c(NCc3ccccc3-c3ccc4ccccc4n3)cc(NCC3(O)CCNCC3)nc12 [Compound 208]

molecular target: T4, CDK2/Cyclin A (Homo sapiens, UniProt P24941); assay: Enzymatic assay for CDK2 (FRET based LANCE Ultra kinase assay); format: biochemical; settings: read-out: CDK2 enzymatic activity (IC50 range)
T4 construct: purchased Invitrogen PV6290
Description: as §3, §4

IC50	SMILES
> 1 µM	CC(C)c1cnn2c(NCc3ccccc3-n3ccc(C(C)(C)O)n3)nc(OCC3CCNCC3)nc12 [Compound 227]
0.1 to 1 µM	CC(C)c1cnn2c(NCc3ccccc3-c3ccc4ccccc4n3)nc(NCC3CCNCC3O)nc12 (stereo not drawn) [Compound 222]
< 0.1 µM	CC(C)c1cnn2c(NCc3ccccc3-c3ccc4ccccc4n3)cc(NCC3(O)CCNCC3)nc12 [Compound 208]
